# Values joined by “and” are separate entries in the source; they are usually repeats but may differ in a detail not shown here. Identical values can stand only once. Results filed as inconclusive are left out. Active and inactive are the calls of the source.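 How the source made its calls: active means fitted half-maximal concentration of signal decrease at or below twice the sample's top tested concentration; inconclusive means flat curve between -70 and -30 percent, or poor fit; inactive means flat within 30 percent, signal rise, or potency above limit.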
# Target: T. gondii ME49Luc in IFN-y HeLa, luciferase, 72 h
# Test: T. gondii growth inhibition with IFN-gamma, dose response, cell-based, ME49Luc, HeLa, luciferase, 72 h (AID 1259418)
row,SMILES,AC50
1,Cc1oc(-c2cccc(Cl)c2)nc1CN1CCc2c(sc3c2CCCC3)C1c1ccccc1 (stereo not given),6.85 µM
2,Cc1ccc2c(c1C)-n1cccc1C1(CCN(C(=O)c3ccccc3F)CC1)N2,> 39 µM (inactive)
3,CCCN1CCc2nc(SCc3nc(-c4ccccc4OC)oc3C)[nH]c(=O)c2C1,> 39 µM (inactive)
4,COc1ccc2c(c1)NC1(CCN(C(=O)c3ccc(F)cc3)CC1)c1cccn1-2,> 20 µM (inactive)
5,O=C1CCc2cc(S(=O)(=O)NCCc3ccccc3)cc3c2N1CCC3,14 µM
6,COc1ccc(OCC(=O)N2CCC3(CC2)Nc2ccc(Cl)cc2-n2cccc23)cc1,> 39 µM (inactive)
7,Cc1cc(C)c(S(=O)(=O)N2CCC3(CC2)NCCN=C3NCc2ccc3c(c2)OCO3)cc1C,9.23 µM
8,Cc1oc(-c2cccc(Cl)c2)nc1CN1CCN(C(=O)Nc2ccc(Cl)cc2)CC1,22.4 µM
9,COc1cccc(CN2CCCCN3[C@@H](CO)[C@@H](c4ccc(-c5ccccc5OC)cc4)[C@@H]3C2)c1,16.4 µM and 13.4 µM
10,COc1ccc(-c2nc(Nc3ccc(CN4CCCCC4)cc3)c3ccccc3n2)cc1,12 µM
11,CCOc1ccccc1N(Cc1nc(-c2ccc(OC)cc2)oc1C)S(=O)(=O)c1ccccc1,6.35 µM
12,CN1C(=O)c2cc(NC(=O)c3cccc(F)c3)ccc2OC[C@H]2O[C@@H](CC(=O)NCC3CCCCC3)CC[C@@H]21,21.5 µM
13,COc1cc([C@@H]2c3cc4c(cc3C(OC3O[C@@H]5COC(C)O[C@H]5[C@H](O)[C@H]3O)C3COC(=O)[C@@H]32)OCO4)cc(OC)c1O (stereo not given in full),> 39 µM (inactive)
14,CC(C)C#Cc1ccc([C@H]2[C@@H](CO)N3C(=O)CN(C(=O)NC4CCCC4)C[C@H]23)cc1,> 39 µM (inactive)
15,O=C(CC1Nc2c3ccccc3nc(=S)n2C1=O)NCCN1CCN(c2cccc(Cl)c2)CC1 (stereo not given),37.1 µM
16,Fc1ccc(CSc2nc(NCc3ccc(Cl)cc3)c3ccccc3n2)cc1,16 µM
17,CCCCNC(=O)CCC1N=C2c3ccccc3N=C(SCc3ccc(F)cc3)N2C1=O (stereo not given),24.8 µM
18,Cc1ccc(CNC2=NCCNC23CCN(S(=O)(=O)c2ccc(Cl)s2)CC3)cc1,5.08 µM
19,CCc1ccc(S(=O)(=O)N2CCC3(CC2)NCCN=C3NCc2ccc(Cl)cc2)cc1,7.78 µM
20,O=C(CC1N=C2c3ccccc3N=C(SCc3ccccc3Cl)N2C1=O)NCc1cccs1 (stereo not given),21.5 µM
21,CN1C(=O)CCc2cc(NC(=O)C(F)(F)F)ccc21,17.1 µM
22,CC(C)n1cnc2c(NCC3CC3)nc(C3CCN(C(=O)c4ccccc4)CC3)cc21,21.7 µM
23,Cc1ccc(Nc2nc(-c3ccccc3Cl)nc3ccccc23)cc1,14.2 µM

row,SMILES,AC50
1,Cc1ccc(CSC2=Nc3ccccc3C3=NC(CCC(=O)NCc4ccc5c(c4)OCO5)C(=O)N23)c(C)c1 (stereo not given),27.2 µM
2,COc1ccccc1-c1nc(CN2CCc3c(sc4c3CCCC4)C2c2ccccc2)c(C)o1 (stereo not given),7.72 µM
3,O=C(NCCc1csc(-c2ccccc2)n1)C1CCN(C(=O)c2ccccc2Cl)CC1,25.8 µM
4,COc1ccccc1NC(=O)N1C[C@H](O)COC[C@@H]2O[C@@H](CC(=O)N3CCC(Cc4ccccc4)CC3)CC[C@H]21,22.9 µM and > 39 µM (inactive)
5,CN(C)CC(=O)N1[C@H](C#N)[C@H](c2ccc(C#CC3CCCCC3)cc2)[C@@H]1CO,14.8 µM
6,C/C=C/c1ccc(C2[C@H]3CNC[C@@H]2N3C(=O)NC2CCCCC2)cc1 (stereo not given in full),9.23 µM and 7.74 µM
7,O=C(Nc1c(C(=O)NCc2cccnc2)[nH]c2ccccc12)c1ccc(Cl)cc1,21.2 µM
8,COc1cccc(-c2ccc3c(c2)[C@H]2[C@H](CCN2S(=O)(=O)c2ccccc2F)[C@@H](CO)N3)c1,25 µM and 6.64 µM
9,COc1ccc(-c2nc(CSc3nc4c(c(=O)[nH]3)CN(Cc3ccc(F)cc3)CC4)c(C)o2)cc1,23.2 µM
10,CCOC(=O)Cn1c(C)c(CN2CCCC2c2cc(C(C)C)no2)c2ccccc21 (stereo not given),15.5 µM
11,O=S(=O)(c1ccc2c(c1)CCCC2)N1CCC2(CC1)NCCN=C2NCc1cccc(F)c1,5.26 µM
12,N#C[C@H]1[C@@H](c2ccc(C3=CCCCC3)cc2)[C@@H](CO)N1C(=O)Nc1ccccc1F,23.2 µM
13,COc1cccc(S(=O)(=O)N2CCCCN3[C@@H](CO)[C@@H](c4ccc(C#CCC(C)C)cc4)[C@@H]3C2)c1,4.66 µM and 5.61 µM and 2.22 µM
14,CCC[C@@]1(CCc2ccccc2)CC(=O)C([C@H](CC)c2cccc(NS(=O)(=O)c3ccc(C(F)(F)F)cn3)c2)C(=O)O1 (stereo not given in full),17.3 µM
15,Cc1nc(OCC(=O)Nc2ccc(Cl)c(Cl)c2)c2ccccc2n1,> 39 µM (inactive)
16,O=S(=O)(c1ccc2c(c1)CCCC2)N1CCC2(CC1)NCCN=C2NC1CCCCC1,11.7 µM
17,COCC(=O)N1[C@@H](C#N)[C@H](c2ccc(C#CCC3CCCC3)cc2)[C@@H]1CO,38.3 µM
18,COCCCNc1nc(-c2ccc(OC)cc2)nc2ccccc12,20 µM
19,Cc1cccc(CNC2=NCCNC23CCN(S(=O)(=O)c2ccc(CC(C)C)cc2)CC3)c1,8.2 µM
20,COc1ccc(CC(=O)Nc2ccc3c(c2)CCC(=O)N3C)c(Cl)c1,21.2 µM
21,CCc1ccccc1S(=O)(=O)N1CCC(C(=O)NCCc2csc(-c3ccccc3)n2)CC1,17.5 µM
22,O=S(=O)(c1ccc2c(c1)CCCC2)N1CCC2(CC1)NCCN=C2NC1CCCCCC1,9.95 µM

# From PubChem BioAssay AID1259418 (Broad Institute, 2018)
